Test results taken from US20030130308A1, “Drugs for spinal anesthesia” (priority 2001, published 2003).
Entries after “also recorded” stand apart in the source; their conditions may differ. Where a name gives a salt, the structure may show the parent alone. Marks after values point to notes of the source that are not given here.

Assays:
Type in all cases: in vivo
rats [1] = test: Mean arterial pressure and heart rate via carotid artery catheter after intrathecal injection; conditions: rat
Method: (§1) Rats were tested before 15 minutes through 240 minutes after intrathecal injection of 5 nmoles (in 10 μl) of 6-[2-(1(2)H-tetrazole-5-yl)ethyl]decahydroisoquinolone-3-carboxylic acid. Sensory function was tested at the hindpaw using withdrawal response to pinprick and withdrawal to pinch with a sharp forceps. Motor performance (ambulation, the placing reflex and Rotarod time), blood pressure and heart rate was also evaluated. Some tests were repeated the next day. Responses after 6-[2-(1(2)H-tetrazole-5-yl)ethyl]decahydroisoquinolone-3-carboxylic acid were compared to injection of 40 μl of bupivacaine, 0.75%. Pinprick responses at the forepaw, chest, abdomen, hindleg and hindpaw were also examined after intrathecal 6-[2-(1(2)H-tetrazole-5-yl)ethyl]decahydroisoquinolone-3-carboxylic acid.
For blood pressure measurement, the paratracheal region was shaved, prepared with povidone-iodine, and incised 1.5-2 cm longitudinally lateral to the midline. The carotid artery was isolated and cannulated with PE-50 tubing that had been stretched by exposing the distal end to heat. The catheter secured and tunneled subcutaneously to the posterior neck region. The skin was closed with 4-0 silk and the rat was allowed to recover for 2-3 days before experiments began.
The mean arterial pressure and heart rate were measured using the carotid artery catheter attached to a pressure transducer relayed to a polygraph and preamplifier (Grass, Quincy, Mass). Heart rate was intermittently measured by counting the arterial pulse wave for 30 seconds.
(§2) The dose and volume of drugs injected intrathecally were determined from the dose required to produce hindlimb sensory and motor loss in preliminary experiments. Bupivacaine HCl (0.75% in 8.25% dextrose for spinal injection) was purchased from Abbott Laboratories (Chicago, Ill.). The intrathecal injection volume was 40 μl. The compound was dissolved in 10% dextrose and water. The injection volume was 1 ul. All intrathecal drug injections were followed by a flush of 10 μl preservative-free saline.

rats [2] = test: Placing reflex (cumulative placing score) after intrathecal injection; conditions: rat; for Cumulative Placing Score: median (range)
Method: as §1
(§3) Rats were anesthetized with halothane. The lumbar region was shaved, prepared with povidone-iodine, made kyphotic and incised 2 to 3 cm longitudinally in the midline at the level of the iliac crests. The space between the 5th and 6th lumbar vertebrae was punctured with 23G hypodermic needle and a 32G PU catheter (10 cm length, OD 0.0107 inches and ID 0.005 inches) reinforced with a Teflon coated stainless steel stylet (0.003 inches) was advanced through the needle cranially. The needle and the stylet were removed and the catheter withdrawn so that 6.5-7 cm extended outside of the lumbar masculature. The catheter was fixed to the fascia, sutured, inserted into an 8 cm length of PE-10 tubing and secured with glue covered with epoxy. The catheter was tunneled under the skin to the cervical region, flushed with saline and sealed with a cautery pen. The dead space of the catheter was 4.5 to 5 μl. The skin was closed and the rat was allowed to recover from anesthesia for 2-3 days.
(§4) Rats were trained over a two-day period. Training began by placing the rat on a Rotarod (Stoelting, Wood Dale, Ill.) that was fixed for three minutes. Then, three series of trials separated by 2-3 hours were performed. During each trial, the rat was placed on the Rotarod accelerating for the first 20 s then at a constant rate of approximately 5 rpm, until a 180 s cut off time. If the rat fell at any time during the initial trial, the trial was repeated. Each rat was allowed three attempts per trial. On the second day, the same procedure was repeated, though acceleration was sustained for 120 s to approximately 12 rpm, with a 150 second cut off time. On day 3, the test day, rats are again placed on the Rotarod and accelerated for 120 seconds to 12 rpm with the cutoff time of 150 seconds. Each rat was permitted 4 attempts at 15 minute intervals. Those successful in 2 of the 4 attempts continued in the protocol, and the average of the 4 attempts was considered the baseline (pre). After a two-hour period, the test drug was administered and rats were examined once on the Rotarod at 30, 60, 90, 120, 180, and 240 minutes. […] Then the placing reflex was tested. Rats were placed on a table and the dorsum of either hindpaw was drawn across the edge of the table; this elicits a lifting of the paw onto the surface of the table (2=normal; 1=delay of 1-2 sec.; 0=more than 2 sec.). This test was performed 3 times for each hindlimb after each ambulation test. The sum of the three trials on both paws were recorded ([…]).
as §2

rats [3] = test: Withdrawal response to pinprick at the hindpaw after intrathecal injection; conditions: rat
Method: as §1, §3
First, the withdrawal response to pinprick was tested on each hindpaw. A 5 mm long tip of a safety pin attached to a von Frey filament (520 mN) was applied once to the plantar aspect of each hindpaw. Either a withdrawal response or a reaction occurred (1=positive response) or no withdrawal (0=no response). The sum of the scores (0, 1 or 2) for each rat was recorded. If no response or reaction was elicited by pinprick, a serrated dissecting forceps was used to pinch the skin of the plantar region for 2-3 sec. Again, withdrawal or reaction was considered a positive response (score=1) and the absence of both a negative test (score=0). […] Because the response to pinch was quite vigorous and rats were subjected to repeated tests in a single day, only rats unresponsive to pinprick were tested for pinch. If pinprick evoked a response, pinch was designated as positive also. The sum of the scores after pinch (0, 1 or 2) was recorded.
as §2

rats [4] = test: Ambulation score after intrathecal injection; conditions: rat; for Ambulation Score: median (range)
Method: as §1, §3, §4, §2

rats [5] = test: Rotarod performance after intrathecal injection; conditions: rat; for Rotarod Time: mean ± SD
Method: as §1, §3
as §4, with “(pre).” for “(pre). After a two-hour period, the test drug was administered and rats were examined once on the Rotarod at 30, 60, 90, 120, 180, and 240 minutes.”
as §2

[6] = LY293558 5 nmoles IT, n=8, 24 hrs
[7] = LY293558 5 nmoles IT, n=8, Pre (before drug injection)
[8] = 5 nmoles intrathecal, from 15 minutes
[9] = LY293558 5 nmoles IT, n=8, 15 min
[10] = LY293558 5 nmoles IT, n=8, 240 min
[11] = bupivacaine 0.75% 40 μl intrathecal
[12] = bupivacaine 0.75% 40 μl intrathecal, fifteen minutes after administration
[13] = Bupivacaine 0.75% 40 μl IT, n=8, 15 min
[14] = Bupivacaine 0.75% 40 μl IT, n=8, 30 min
[15] = Bupivacaine 0.75% 40 μl IT, n=8, 60 min
[16] = Bupivacaine 0.75% 40 μl IT, n=8, 90 min
[17] = Bupivacaine 0.75% 40 μl IT, n=8, 120 min
[18] = Bupivacaine 0.75% 40 μl IT, n=8, 180 min
[19] = Bupivacaine 0.75% 40 μl IT, n=8, 240 min
[20] = Bupivacaine 0.75% 40 μl IT, n=8, 24 hrs
[21] = Bupivacaine 0.75% 40 μl IT, n=8, Pre (before drug injection)

O=C(O)C1CC2CC(CCc3nnn[nH]3)CCC2CN1 (centres unmarked) [LY293558, 6-[2-(1(2)H-tetrazole-5-yl)ethyl]decahydroisoquinolone-3-carboxylic acid]
change in blood pressure (rats [1]; 5 nmoles intrathecal): No change; also recorded: did not change | change in heart rate (rats [1]; 5 nmoles intrathecal): No change; also recorded: did not change | placing reflex completely eliminated in all rats through (rats [2]; 5 nmoles intrathecal): 90 min | placing reflex impaired through (P<0.05 vs Pre) (rats [2]; 5 nmoles intrathecal): 3 h | Cumulative Placing Score (rats [2]; [6]): 12 (12-12) | Cumulative Placing Score (rats [2]; [7]): 12 (12-12) | greater inhibition of pinprick than bupivacaine (P<0.05) through (rats [3]; 5 nmoles intrathecal vs bupivacaine): 3 h | rats failed to respond to pin prick through (P<0.05 vs Pre) (rats [3]; [8]): 2 h | recovery of pinprick response the next day (rats [3]; 5 nmoles intrathecal, next day): recovered fully | time by which all rats had recovered ambulation (rats [4]; 5 nmoles intrathecal): ≤ 4 h | ambulation significantly impaired through (P<0.05 vs Pre) (rats [4]; [8]): 90 min | Ambulation Score (rats [4]; [9]): 0 (0-0)* | Ambulation Score (rats [4]; [10]): 2 (2-2) | Ambulation Score (rats [4]; [6]): 2 (2-2) | Ambulation Score (rats [4]; [7]): 2 (2-2) | Rotorod performance decreased through (P<0.05 vs Pre) (rats [5]; 5 nmoles intrathecal): 4 h | recovery of Rotorod performance the next day (rats [5]; 5 nmoles intrathecal, next day): full recovery | Rotarod Time (rats [5]; [9]): 3 ± 4 s | Rotarod Time (rats [5]; [10]): 115 ± 42 s | Rotarod Time (rats [5]; [6]): 149 ± 5 s | Rotarod Time (rats [5]; [7]): 144 ± 10 s

CCCCN1CCCCC1C(=O)Nc1c(C)cccc1C (centres unmarked) [Bupivacaine, Bupivacaine HCl]
time by which blood pressure and heart rate changes resolved (rats [1]; [11]): ≤ 30 min | heart rate change vs Pre (rats [1]; [12]): increased | mean arterial pressure change vs Pre (rats [1]; [12]): decreased | Cumulative Placing Score (rats [2]; [13]): 0 (0-0)* | Cumulative Placing Score (rats [2]; [14]): 6 (0-12)* | Cumulative Placing Score (rats [2]; [15]): 12 (1-12) | Cumulative Placing Score (rats [2]; [16]): 12 (0-12) | Cumulative Placing Score (rats [2]; [17]): 12 (12-12) | Cumulative Placing Score (rats [2]; [18]): 12 (12-12) | Cumulative Placing Score (rats [2]; [19]): 12 (12-12) | Cumulative Placing Score (rats [2]; [20]): 12 (12-12) | Cumulative Placing Score (rats [2]; [21]): 12 (12-12) | placing reflex decreased for (P<0.05 vs Pre) (rats [2]; [11]): 30 min | time at which all rats had recovered withdrawal to pinprick (rats [3]; [11]): 60 min | withdrawal to pinprick vs Pre (rats [3]; bupivacaine 0.75% 40 μl intrathecal, 15 minutes after injection, not eliminated in all tests): reduced | Ambulation Score (rats [4]; [13]): 0 (0-0)* | Ambulation Score (rats [4]; [14]): 1 (0-2)* | Ambulation Score (rats [4]; [15]): 2 (1-2) | Ambulation Score (rats [4]; [16]): 2 (1-2) | Ambulation Score (rats [4]; [17]): 2 (2-2) | Ambulation Score (rats [4]; [18]): 2 (2-2) | Ambulation Score (rats [4]; [19]): 2 (2-2) | Ambulation Score (rats [4]; [20]): 2 (2-2) | Ambulation Score (rats [4]; [21]): 2 (2-2) | ambulation decreased for (P<0.05 vs Pre) (rats [4]; [11]): 30 min | Rotarod Time (rats [5]; [13]): 5 ± 6 s | Rotarod Time (rats [5]; [14]): 49 ± 42 s | Rotarod Time (rats [5]; [15]): 135 ± 43 s | Rotarod Time (rats [5]; [16]): 136 ± 39 s | Rotarod Time (rats [5]; [17]): 137 ± 26 s | Rotarod Time (rats [5]; [18]): 142 ± 15 s | Rotarod Time (rats [5]; [19]): 149 ± 2 s | Rotarod Time (rats [5]; [20]): 150 ± 0 s | Rotarod Time (rats [5]; [21]): 146 ± 8 s | rotorod performance decreased for (P<0.05 vs Pre) (rats [5]; [11]): 30 min
